Results from patent US20190031665A1, “DERIVATIVES OF PYRROLOIMIDAZOLE OR ANALOGUES THEREOF WHICH ARE USEFUL FOR THE TREATMENT OF INTER ALIA CANCER” (EMCURE PHARMACEUTICALS LIMITED, priority 2016, published 2019).

How the values were obtained:
[1] = target: T1, human indoleamine 2,3-dioxygenase 1 (hIDO1) (Homo sapiens, UniProt P14902); experiment: In-vitro human indoleamine 2,3-dioxygenase 1 (IDO1) enzyme assay; assay type: biochemical; details: for IC50: hIDO1 enzyme; for inhibition at 1 µM: hIDO1 enzyme at 1.0 μM concentration; for inhibition at 10 µM: hIDO1 enzyme at 10.0 μM concentration
T1 construct: His tag (N); purchased BPS Bioscience, San Diego, Calif., USA; host or cells: E. coli
Outline: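 His-tagged hIDO1 (E. coli, 50 ng) incubated with 80 μM tryptophan, 10 mM ascorbate, 10 μM methylene blue, catalase and 0.01% Tween-20 in 50 mM sodium phosphate pH 6.5, 60 min, 37 °C. Piperidine converts N-formylkynurenine to fluorescent NFK-PIP (ex 400/em 500 nm); IC50 by nonlinear regression.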

[2] = target: T2, human tryptophan 2,3-dioxygenase (hTDO) (Homo sapiens, UniProt P48775); experiment: In-vitro human tryptophan 2,3-dioxygenase (TDO) enzyme assay; assay type: biochemical; details: for inhibition at 1 µM: hTDO enzyme at 1.0 μM concentration; for inhibition at 10 µM: hTDO enzyme at 10.0 μM concentration
T2 construct: His tag (N); purchased BPS Bioscience, San Diego, Calif., USA; host or cells: E. coli
Outline: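 N-His-tagged hTDO expressed in E. coli (125 ng) incubated with 200 μM L-tryptophan, 100 mM sodium phosphate pH 7.0, 0.01% Tween-20, 100 μM ascorbate, 60 min at 37 °C. Product converted with 200 mM piperidine (65 °C, 20 min) to NFK-PIP, fluorescence 400/500 nm; IC50 by nonlinear regression.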

T2 sequence (P48775 whole entry): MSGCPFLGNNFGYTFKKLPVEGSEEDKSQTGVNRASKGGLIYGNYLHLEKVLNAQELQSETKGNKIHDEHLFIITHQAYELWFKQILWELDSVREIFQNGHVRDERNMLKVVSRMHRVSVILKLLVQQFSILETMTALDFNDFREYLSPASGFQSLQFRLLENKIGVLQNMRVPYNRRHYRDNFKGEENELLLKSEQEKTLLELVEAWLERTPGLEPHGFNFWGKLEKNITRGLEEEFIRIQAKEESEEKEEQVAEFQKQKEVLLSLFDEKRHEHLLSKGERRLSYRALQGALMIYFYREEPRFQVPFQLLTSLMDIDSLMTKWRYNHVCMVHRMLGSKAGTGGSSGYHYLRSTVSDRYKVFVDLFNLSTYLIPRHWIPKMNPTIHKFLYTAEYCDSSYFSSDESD
T1 sequence (P14902 whole entry): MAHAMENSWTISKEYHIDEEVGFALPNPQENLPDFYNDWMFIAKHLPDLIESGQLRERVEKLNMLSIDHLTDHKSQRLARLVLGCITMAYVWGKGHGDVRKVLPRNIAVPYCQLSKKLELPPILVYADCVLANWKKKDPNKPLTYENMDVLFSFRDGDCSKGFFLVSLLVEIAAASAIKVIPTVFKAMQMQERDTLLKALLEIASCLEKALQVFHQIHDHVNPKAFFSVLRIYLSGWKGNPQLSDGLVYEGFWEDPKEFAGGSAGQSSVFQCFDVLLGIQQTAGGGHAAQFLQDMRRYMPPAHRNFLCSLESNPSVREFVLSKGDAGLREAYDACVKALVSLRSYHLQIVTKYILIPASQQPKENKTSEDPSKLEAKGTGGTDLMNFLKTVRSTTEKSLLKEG

CC1=C(c2ccccc2)C(CC(O)C2CCN(C(=O)c3ccccc3)CC2)n2cncc21 (centres unmarked) [Example 144]
IC50 [1]: < 0.5 µM | inhibition at 1 µM [1]: ≥ 50% | inhibition at 10 µM [1]: ≥ 50% | inhibition at 1 µM [2]: ≤ 50%

CC1=C(c2ccccc2)C(CC(O)C2CCN(S(=O)(=O)c3ccccc3)CC2)n2cncc21 (centres unmarked) [Example 145]
IC50 [1]: < 0.5 µM | inhibition at 1 µM [1]: ≥ 50% | inhibition at 10 µM [1]: ≥ 50% | inhibition at 1 µM [2]: ≥ 50%

CCOC(=O)N1CCC(C(=O)CC2C(c3ccccc3)=C(C)c3cncn32)CC1 (centres unmarked) [Example 146]
inhibition at 1 µM [1]: ≤ 50% | inhibition at 10 µM [1]: ≥ 50% | inhibition at 1 µM [2]: ≤ 50%

CC1=C(c2ccccc2)C(CC(=O)C2CCN(C(=O)C3CCCCC3)CC2)n2cncc21 (centres unmarked) [Example 147]
inhibition at 1 µM [1]: ≤ 50% | inhibition at 10 µM [1]: ≥ 50% | inhibition at 1 µM [2]: ≤ 50%

CCOC(=O)N1CCC(C(O)CC2C(c3ccccc3)=C(C)c3cncn32)CC1 (centres unmarked) [Example 148]
IC50 [1]: < 0.5 µM | inhibition at 1 µM [1]: ≥ 50% | inhibition at 10 µM [1]: ≥ 50% | inhibition at 1 µM [2]: ≤ 50%

CC1=C(c2ccccc2)C(CC(O)C2CCN(C(=O)C3CCCCC3)CC2)n2cncc21 (centres unmarked) [Example 149]
IC50 [1]: < 0.5 µM | inhibition at 1 µM [1]: ≥ 50% | inhibition at 10 µM [1]: ≥ 50% | inhibition at 1 µM [2]: ≤ 50%

CC1=C(c2ccccc2)C(CC(O)C2CCN(C(=O)c3ccccn3)CC2)n2cncc21 (centres unmarked) [Example 152]
IC50 [1]: > 0.5 µM | inhibition at 1 µM [1]: ≤ 50% | inhibition at 10 µM [1]: ≥ 50% | inhibition at 1 µM [2]: ≤ 50%

CC1=C(c2ccccc2)C(CC(O)C2CCN(C(=O)c3cccnc3)CC2)n2cncc21 (centres unmarked) [Example 157]
IC50 [1]: > 0.5 µM | inhibition at 1 µM [1]: ≥ 50% | inhibition at 10 µM [1]: ≥ 50% | inhibition at 1 µM [2]: ≤ 50%

CC1=C(c2ccccc2)C(CC(O)C2CCN(C(=O)Nc3ccccc3)CC2)n2cncc21 (centres unmarked) [Example 158, 4-[1-Hydroxy-2-(7-methyl-6-phenyl-5H-pyrrolo[1,2-c]imidazol-5-yl)-ethyl]-piperidine-1-carboxylic acid phenyl amide]
IC50 [1]: < 0.5 µM | inhibition at 1 µM [1]: ≥ 50% | inhibition at 10 µM [1]: ≥ 50% | inhibition at 1 µM [2]: ≥ 50%

CC1=C(c2ccccc2)C(CC(=O)C2CN(C(=O)c3ccccc3)C2)n2cncc21 (centres unmarked) [Example 159, 1-(1-Benzoyl-azetidin-3-yl)-2-(7-methyl-6-phenyl-5H-pyrrolo[1,2-c]imidazol-5-yl)-ethanone]
inhibition at 1 µM [1]: ≤ 50% | inhibition at 10 µM [1]: ≥ 50% | inhibition at 1 µM [2]: ≤ 50%

CC1=C(c2ccccc2)C(CC(O)C2CCN(C(=O)c3ccncc3)CC2)n2cncc21 (centres unmarked) [Example 162]
inhibition at 1 µM [1]: ≤ 50% | inhibition at 10 µM [1]: ≥ 50% | inhibition at 1 µM [2]: ≤ 50%

CC1=C(c2ccccc2)C(CC(O)C2CCN(S(=O)(=O)C3CCCCC3)CC2)n2cncc21 (centres unmarked) [Example 163, 1-(1-Cyclohexanesulfonyl-piperidin-4-yl)-2-(7-methyl-6-phenyl-5H-pyrrolo[1,2-c]imidazol-5-yl)-ethanol]
IC50 [1]: < 0.5 µM | inhibition at 1 µM [1]: ≥ 50% | inhibition at 10 µM [1]: ≥ 50% | inhibition at 1 µM [2]: ≥ 50%

CC1=C(c2ccccc2)C(CC(O)C2CCN(C(=O)c3ccnc(C)c3)CC2)n2cncc21 (centres unmarked) [Example 164, {4-[1-Hydroxy-2-(7-methyl-6-phenyl-5H-pyrrolo[1,2-c]imidazol-5-yl)-ethyl]-piperidin-1-yl}-(2-methyl-pyridin-4-yl)-methanone]
inhibition at 1 µM [1]: ≤ 50% | inhibition at 10 µM [1]: ≥ 50% | inhibition at 1 µM [2]: ≤ 50%

CC1=C(c2ccccc2)C(CC(O)C2CCN(S(C)(=O)=O)CC2)n2cncc21 (centres unmarked) [Example 165]
inhibition at 1 µM [1]: ≤ 50% | inhibition at 10 µM [1]: ≥ 50% | inhibition at 1 µM [2]: ≤ 50%

CC1=C(c2ccccc2)C(CC(O)C2CCN(C(=O)Nc3ccccn3)CC2)n2cncc21 (centres unmarked) [Example 167]
IC50 [1]: < 0.5 µM | inhibition at 1 µM [1]: ≥ 50% | inhibition at 10 µM [1]: ≥ 50% | inhibition at 1 µM [2]: ≤ 50%

CC1=C(c2ccccc2)C(CC(F)C2CCCCC2)n2cncc21 (centres unmarked) [Example 168, 5-(2-Cyclohexyl-2-fluoro-ethyl)-7-methyl-6-phenyl-5H-pyrrolo[1,2-c]imidazole]
IC50 [1]: > 0.5 µM | inhibition at 1 µM [1]: ≥ 50% | inhibition at 10 µM [1]: ≥ 50% | inhibition at 1 µM [2]: ≥ 50% | inhibition at 10 µM [2]: ≥ 50%

O=C(CC1C(c2ccccc2)=Cc2cncn21)c1ccccc1 (centres unmarked) [Example 169, 1-Phenyl-2-(6-phenyl-5H-pyrrolo[1,2-c]imidazol-5-yl)-ethanone]
inhibition at 1 µM [1]: ≤ 50% | inhibition at 10 µM [1]: ≥ 50% | inhibition at 10 µM [2]: ≥ 50%

CCCCC(O)CC1C(c2ccccc2)=C(C)c2cncn21 (centres unmarked) [Example 170, 1-(7-Methyl-6-phenyl-5H-pyrrolo[1,2-c]imidazole-5-yl)-hexan-2-ol]
IC50 [1]: > 0.5 µM | inhibition at 1 µM [1]: ≤ 50% | inhibition at 10 µM [1]: ≥ 50% | inhibition at 1 µM [2]: ≥ 50% | inhibition at 10 µM [2]: ≥ 50%

CCOC(=O)CCC(=O)CC1C(c2ccccc2)=C(C)c2cncn21 (centres unmarked) [Example 173, Ethyl 5-(7-methyl-6-phenyl-5H-pyrrolo[1,2-c]imidazol-5-yl)-4-oxopentanoate]
inhibition at 1 µM [1]: ≤ 50% | inhibition at 10 µM [1]: ≥ 50% | inhibition at 1 µM [2]: ≤ 50%

CC1=C(c2ccccc2)C(CC(O)CCC(=O)N2CCC(O)CC2)n2cncc21 (centres unmarked) [Example 174, 4-Hydroxy-1-(4-hydroxypiperidin-1-yl)-5-(7-methyl-6-phenyl-5H-pyrrolo[1,2-c]imidazol-5-yl)pentan-1-one]
inhibition at 1 µM [1]: ≤ 50% | inhibition at 10 µM [1]: ≥ 50% | inhibition at 1 µM [2]: ≤ 50%

CC1=C(c2ccccc2)C(CC(=O)c2ccc(NC(=O)Cc3ccccc3F)cc2)n2cncc21 (centres unmarked) [Example 176, 2-(2-fluorophenyl)-N-(4-(2-(7-methyl-6-phenyl-5H-pyrrolo[1,2-c]imidazol-5-yl)acetyl)phenyl)acetamide]
IC50 [1]: < 0.5 µM | inhibition at 1 µM [1]: ≥ 50% | inhibition at 10 µM [1]: ≥ 50% | inhibition at 1 µM [2]: ≥ 50%

CC1=C(c2ccccc2)C(CC(=O)C2CCC(=NO)CC2)n2cncc21 (centres unmarked) [Example 177, 4-[2-(7-Methyl-6-phenyl-5H-pyrrolo[1,2-c]imidazol-5-yl)-acetyl]-cyclohexanone oxime]
inhibition at 1 µM [1]: ≤ 50% | inhibition at 10 µM [1]: ≥ 50% | inhibition at 1 µM [2]: ≥ 50%

CC1=C(c2ccccc2)C(CC(O)C2CCC(=NO)CC2)n2cncc21 (centres unmarked) [Example 178, 4-[1-Hydroxy-2-(7-methyl-6-phenyl-5H-pyrrolo[1,2-c]imidazol-5-yl)-ethyl]-cyclohexanone oxime]
IC50 [1]: < 0.5 µM | inhibition at 1 µM [1]: ≥ 50% | inhibition at 10 µM [1]: ≥ 50% | inhibition at 1 µM [2]: ≤ 50%

CC1=C(c2ccccc2)C(CC(O)C2CCN(C(=O)NC3CCCCC3)CC2)n2cncc21 (centres unmarked) [Example 179]
IC50 [1]: < 0.5 µM | inhibition at 1 µM [1]: ≥ 50% | inhibition at 10 µM [1]: ≥ 50% | inhibition at 1 µM [2]: ≤ 50%

CC1=C(c2ccccc2)C(CC(O)C2CCN(C(=O)Cc3ccccc3)CC2)n2cncc21 (centres unmarked) [Example 180]
IC50 [1]: < 0.5 µM | inhibition at 1 µM [1]: ≥ 50% | inhibition at 10 µM [1]: ≥ 50% | inhibition at 1 µM [2]: ≥ 50%

CC1=C(c2ccccc2)C(CC(O)C2CCN(C(=O)Nc3cccc(Cl)c3)CC2)n2cncc21 (centres unmarked) [Example 181]
IC50 [1]: < 0.5 µM | inhibition at 1 µM [1]: ≥ 50% | inhibition at 10 µM [1]: ≥ 50% | inhibition at 1 µM [2]: ≤ 50%

CC1=C(c2ccccc2)C(CC(O)C2CCN(C(=O)Nc3ccc(F)c(Cl)c3)CC2)n2cncc21 (centres unmarked) [Example 182]
IC50 [1]: < 0.5 µM | inhibition at 1 µM [1]: ≥ 50% | inhibition at 10 µM [1]: ≥ 50% | inhibition at 1 µM [2]: ≤ 50%

CC1=C(c2ccccc2)C(CC(O)C2CCN(C(=O)Nc3cccc(C)n3)CC2)n2cncc21 (centres unmarked) [Example 183]
IC50 [1]: < 0.5 µM | inhibition at 1 µM [1]: ≥ 50% | inhibition at 10 µM [1]: ≥ 50% | inhibition at 1 µM [2]: ≤ 50%

CC1=C(c2ccccc2)C(CC(O)C2CCC(F)(F)CC2)n2cncc21 (centres unmarked) [Example 184]
IC50 [1]: < 0.5 µM | inhibition at 1 µM [1]: ≥ 50% | inhibition at 10 µM [1]: ≥ 50% | inhibition at 1 µM [2]: ≥ 50%

CC1=C(c2ccccc2)C(CC(O)C2CCC(c3ccccc3)CC2)n2cncc21 (centres unmarked) [Example 186]
IC50 [1]: < 0.5 µM | inhibition at 1 µM [1]: ≥ 50% | inhibition at 10 µM [1]: ≥ 50% | inhibition at 1 µM [2]: ≤ 50%

CC1=C(c2ccccc2)C(CC(O)C2CCN(C(=O)C(C)C)CC2)n2cncc21 (centres unmarked) [Example 187]
IC50 [1]: > 0.5 µM | inhibition at 1 µM [1]: ≥ 50% | inhibition at 10 µM [1]: ≥ 50% | inhibition at 1 µM [2]: ≤ 50%

CC1=C(c2ccccc2)C(CC(O)C2CCN(c3ccccn3)CC2)n2cncc21 (centres unmarked) [Example 188, 2-(7-methyl-6-phenyl-5H-pyrrolo[1,2-c]imidazol-5-yl)-1-(1-(pyridin-2-yl)piperidin-4-yl)ethan-1-ol]
inhibition at 1 µM [1]: ≤ 50% | inhibition at 10 µM [1]: ≥ 50% | inhibition at 1 µM [2]: ≤ 50%
